Data as given in patent US4745123A, “Substituted tetrahydro-3-pyridine-carboxylic acid, ester, and amide cholinergic agents” (priority 1986, dated 1988).
Where a name gives a salt, the structure may show the parent alone. Blank lines part the entries; values can stand above or below the molecule they belong to.

Experiments:
[1] = molecular target: muscarinic binding site; test: inhibition of specific binding at the muscarinic binding site
Protocol: The compounds were assayed at one or more concentrations in each binding assay.

[2] = tested on: rats; test: reversal of retrograde amnesia in rats produced by electroconvulsive shock treatment; assay type: in vivo, rat (Charles River CD strain); parameters: reversal of retrograde amnesia (Table C): scale not given here
Protocol: Several representative compounds of the present invention were also assayed in an in vivo test designed to assess the ability of the compounds to reverse retrograde amnesia in rats produced by electroconvulsive shock treatment. Activity of a compound in this test is indicative of potential cognition activating activity in human patients suffering from impaired cognitive function.
In the test, groups of fifty weanling rats (Charles River CD strain) are randomly divided into five sub-groups of ten rats each. The rats are trained by placing them in a highly illuminated 6 inch by 8 inch box which opens into a darkened 8 inch by 12 inch chamber having electrified grids. Initially, rats move freely from the illuminated compartment to the darkened chamber through a 4 inch by 4 inch doorway.
When a rat has all four feet within the darkened chamber, the floor of the darkened chamber is electrified and the rat is electrically shocked until it exits to the original illuminated area. If a rat reenters the darkened chamber before one minute has elapsed, it again receives a mild foot shock until it exits to the illuminated area. When the rat remains in the illuminated area for a period of one minute, it is removed and placed in a group holding cage.
Two hours after the above training, the rats are given a single 20 ma electroconvulsive shock of 1 second duration and immediately returned to the holding cage.
Two hours after the delivery of the shock, the rats are administered the test compound orally, or intraperitoneally or intramuscularly for special tests.
One hour after treatment with the test compound, the rats are tested for retention of the avoidance response. This is accomplished by placing a drug-treated rat in the illuminated area of the test chamber. […] Any rat entering the darkened chamber within sixty seconds is designated as having amnesia for this response.
The five sub-groups of ten rats each were treated as follows:
A 50% difference between the baseline and ceiling control groups was required to evaluate a particular test compound. If a difference of less than 50% was observed, the results of that particular experiment were discarded.
Under the test conditions, a difference of this magnitude is statistically significant using the multinomial expansion of the statistical chi-square test.

[3] = tested on: patients clinically diagnosed as having presenile primary degenerative dementia; settings: double blind study, Christie et al. (1981); cited from earlier work

Structure (SMILES): CCCN1CCC(c2ccccc2)=C(C(=O)OCc2ccccc2)C1 [Example 2, 1,2,5,6-Tetrahydro-4-phenyl-1-propyl-3-pyridinecarboxylic acid, phenylmethyl ester]
IC50 [1]: 3 µM

Structure (SMILES): CCCN1CCC(c2ccccc2)=C(C(=O)N(CC)CC)C1 [Example 41, N,N-diethyl-4-phenyl-1-propyl-1,2,5,6-tetrahydro-3-pyridinecarboxamide, ethanedioate]
IC50 [1]: 10 µM

Structure (SMILES): CCCN1CCC(c2ccccc2)=C(C(=O)NC2CCCCC2)C1 [Example 55]
IC50 [1]: 5 µM

IC50 [1]: 7 µM
Structure (SMILES): CCOC(=O)C1CN(CC)CC=C1c1ccccc1C (stereo not drawn) [Example 82]

Structure (SMILES): CCCN1CCC(c2ccccc2)=C(C(=O)OC)C1 [Example 22, 1,2,5,6-Tetrahydro-4-phenyl-1-propyl-3-pyridinecarboxylic acid, methyl ester]
IC50 [1]: 6.5 µM | active (A) / inactive (N), reversal of retrograde amnesia ([2]; 0.01 mg/kg): A ("active" (A) if the difference between the numbers of animals in the drug and control groups reentering the darkened chamber was equal or greater than three out of ten) | reversal of retrograde amnesia (Table C) ([2]; 0.01 mg/kg): 57 | active (A) / inactive (N), reversal of retrograde amnesia ([2]; 0.1 mg/kg): A ("active" (A) if the difference between the numbers of animals in the drug and control groups reentering the darkened chamber was equal or greater than three out of ten) | reversal of retrograde amnesia (Table C) ([2]; 0.1 mg/kg): 81 | active (A) / inactive (N), reversal of retrograde amnesia ([2]; 1.0 mg/kg): A ("active" (A) if the difference between the numbers of animals in the drug and control groups reentering the darkened chamber was equal or greater than three out of ten) | reversal of retrograde amnesia (Table C) ([2]; 1.0 mg/kg): 57

Structure (SMILES): CCCN1CCC(c2ccccc2)=C(C(=O)NCc2ccccc2)C1 [Example 46, 1,2,5,6-tetrahydro-4-phenyl-N-phenylmethyl-1-propyl-3-pyridinecarboxamide]
IC50 [1]: 10 µM

Structure (SMILES): CCN1CCC(c2ccccc2)=C(C(=O)OCc2ccccc2)C1 [Example 1]
IC50 [1]: 0.31 µM | active (A) / inactive (N), reversal of retrograde amnesia ([2]; 0.01 mg/kg): N (if less than three, the test compound was considered "inactive" (N)) | reversal of retrograde amnesia (Table C) ([2]; 0.01 mg/kg): 40 | active (A) / inactive (N), reversal of retrograde amnesia ([2]; 0.1 mg/kg): N (if less than three, the test compound was considered "inactive" (N)) | reversal of retrograde amnesia (Table C) ([2]; 0.1 mg/kg): 20 | active (A) / inactive (N), reversal of retrograde amnesia ([2]; 1.0 mg/kg): N (if less than three, the test compound was considered "inactive" (N)) | reversal of retrograde amnesia (Table C) ([2]; 1.0 mg/kg): 40

Structure (SMILES): CCN1CCC(c2ccccc2)=C(C(=O)NCCc2ccccc2)C1 [Example 52, 1-ethyl-1,2,5,6-tetrahydro-4-phenyl-N-(2-phenylethyl)-3-pyridinecarboxamide, ethanedioate]
IC50 [1]: 5 µM

Structure (SMILES): CCN1CCC(c2cccc(C)c2)=C(C(=O)OC)C1 [Example 27]
IC50 [1]: 3 µM

Structure (SMILES): COC(=O)C1=C(c2ccccc2)CCN(Cc2ccccc2)C1 [Example 4, 1,2,5,6-Tetrahydro-4-phenyl-1-(phenylmethyl)-3-pyridinecarboxylic acid, methyl ester]
IC50 [1]: 8 µM

Structure (SMILES): CCN1CCC(c2ccccc2)=C(C(=O)N(C)C)C1 [Example 8, 1-ethyl-1,2,5,6-tetrahydro-N,N-dimethyl-4-phenyl-3-pyridinecarboxamide, ethanedioate]
IC50 [1]: 9 µM

Structure (SMILES): CCN1CC=C(c2ccccc2)C(C(=O)OC2CCCC2)C1 (stereo not drawn) [Example 88]
IC50 [1]: 0.36 µM

Structure (SMILES): COC(=O)C1=CCCN(C)C1 [Arecoline, methyl ester of 1,2,5,6-tetrahydro-1-methyl-3-pyridinecarboxylic acid, reference compound]
IC50 [1]: 1.1 µM | test of picture recognition [3]: Significant improvement

Structure (SMILES): CCN1CC=C(c2ccccc2)C(C(=O)OC(C)C)C1 (stereo not drawn) [Example 87]
IC50 [1]: 0.8 µM

Structure (SMILES): COC(=O)C1=C(c2ccccc2)CCN(C)C1 [Example 21, 1,2,5,6-tetrahydro-1-methyl-4-phenyl-3-pyridinecarboxylicacid, methyl ester]
IC50 [1]: 3.16 µM | active (A) / inactive (N), reversal of retrograde amnesia ([2]; 0.01 mg/kg): A ("active" (A) if the difference between the numbers of animals in the drug and control groups reentering the darkened chamber was equal or greater than three out of ten) | reversal of retrograde amnesia (Table C) ([2]; 0.01 mg/kg): 57 | active (A) / inactive (N), reversal of retrograde amnesia ([2]; 0.1 mg/kg): N (if less than three, the test compound was considered "inactive" (N)) | reversal of retrograde amnesia (Table C) ([2]; 0.1 mg/kg): 57 | active (A) / inactive (N), reversal of retrograde amnesia ([2]; 1.0 mg/kg): N (if less than three, the test compound was considered "inactive" (N)) | reversal of retrograde amnesia (Table C) ([2]; 1.0 mg/kg): 0

Structure (SMILES): CCN1CCC(c2ccccc2)=C(C(=O)N(C(C)C)C(C)C)C1 [Example 53, 1-ethyl-1,2,5,6-tetrahydro-N,N-bis(1-methylethyl)-4-phenyl-3-pyridinecarboxamide, monohydrochloride]
IC50 [1]: 0.9 µM

Structure (SMILES): CCCN1CCC(c2ccc(Cl)cc2)=C(C(=O)OCc2ccccc2)C1 [Example 43, 4-(4-chlorophenyl)-1,2,5,6-tetrahydro-1-propyl-3-pyridinecarboxylic acid, phenylmethyl ester, monohydrochloride]
IC50 [1]: 0.4 µM

Structure (SMILES): CCN1CCC(c2ccccc2)=C(C(=O)Nc2ccccc2)C1 [Example 57]
IC50 [1]: 10 µM

Structure (SMILES): COC(=O)C1CN(CCc2ccccc2)CC=C1c1ccccc1 (stereo not drawn) [Example 64]
IC50 [1]: 10 µM

Structure (SMILES): CCCN1CC=C(c2ccccc2)C(C(=O)OCc2ccccc2)C1 (stereo not drawn) [Example 74]
IC50 [1]: 2 µM

Structure (SMILES): CCN1CCC(c2ccccc2)=C(C(=O)OC2CCCC2)C1 [Example 5, 1-Ethyl-1,2,5,6-tetrahydro-4-phenyl-3-pyridinecarboxylic acid, cyclopentyl ester]
IC50 [1]: 0.58 µM

Structure (SMILES): CCCN1CCC(c2cccc(C)c2)=C(C(=O)OC)C1 [Example 28]
IC50 [1]: 6 µM

Structure (SMILES): COC(=O)C1CN(C)CC=C1c1ccccc1 (racemic) [Example 63, (±)-1,2,3,6-tetrahydro-1-methyl-4-phenyl-3-pyridinecarboxylic acid, methyl ester]
IC50 [1]: 3.64 µM | active (A) / inactive (N), reversal of retrograde amnesia ([2]; 0.01 mg/kg): A ("active" (A) if the difference between the numbers of animals in the drug and control groups reentering the darkened chamber was equal or greater than three out of ten) | reversal of retrograde amnesia (Table C) ([2]; 0.01 mg/kg): 50 | active (A) / inactive (N), reversal of retrograde amnesia ([2]; 0.1 mg/kg): N (if less than three, the test compound was considered "inactive" (N)) | reversal of retrograde amnesia (Table C) ([2]; 0.1 mg/kg): 17 | active (A) / inactive (N), reversal of retrograde amnesia ([2]; 1.0 mg/kg): A ("active" (A) if the difference between the numbers of animals in the drug and control groups reentering the darkened chamber was equal or greater than three out of ten) | reversal of retrograde amnesia (Table C) ([2]; 1.0 mg/kg): 50
